Test results published in patent publication US9226913B2, “Methods of treating cancer using a combination of an immunomodulatory compound and an artemisinin or a derivative thereof” (Celgene Corporation, priority 2010, dated 2016).
One block for each molecule: values may come before it.

Assays:
[1] = test system: A549 cells; assay: MTT proliferation assay, 72 hr (Example 6.2); type: cell-based, human; conditions: Homo sapiens, A549, 72 h, mean ± SD of at least five experiments
Protocol: (§1) The human cancer cell lines; MCF7 (breast), HCT116 (colon) and A549 (lung) (Cancer Research UK, London, UK), were grown in either DMEM (Sigma) or RPMI (Sigma) media supplemented with 10% foetal bovine serum, 2 mM L-glutamine, 1% penicillin/streptomycin.
(§2) To study the effect of each agent on cell growth, cells growing exponentially were added to 96-well plates at a density of 3×10^4/well. Drugs (0.1-100 μM) were then added to the wells, ensuring an equal volume of 200 μl across the plate. Cell number was measured at 72 hr using a standard methylthiazoletetrazolium (MTT)-based assay without modifications as described previously (Gordi et al., 2004, Toxicol. Lett. 147: 99-107). Briefly, MTT (Sigma) was added to each well to give a working concentration of 0.4 mg/ml, and plates returned to the incubator for a further 1 hr. After this time, the medium was aspirated off, 200 μl of DMSO was then added to each well, and plates agitated gently for 5 min before measuring optical density at 540 nm in each well.

[2] = test system: MCF7 cells; assay: MTT proliferation assay, 72 hr (Example 6.2); type: cell-based, human; conditions: Homo sapiens, MCF7, 72 h, mean ± SD of at least five experiments
Protocol: as §1, §2

[3] = test system: HCT116^poly cells; assay: MTT proliferation assay, 72 hr (Example 6.2); type: cell-based, human; conditions: Homo sapiens, HCT116^poly (polyploid extended-passage variant)
Protocol: as §2

[4] = test system: HCT116^norm cells; assay: MTT proliferation assay, 72 hr (Example 6.2); type: cell-based, human; conditions: Homo sapiens, 72 h, MTT, mean ± SD of at least five experiments, read-out: IC50
Protocol: as §1, §2

[5] = test system: Bax; assay: Immunoblotting analysis (Example 6.2); type: cell-based, human
Protocol: (§3) Cells were harvested and total cellular protein was solubilised in lysis buffer (New England Biolabs, Hitchin, UK) and resolved by Tris-glycine electrophoresis using a 4-12% bis-tris gradient-gel. Following transfer of proteins to 0.45 μm nitrocellulose membranes, blocking was performed in 5% (w/v) non-fat milk in TTBS [0.5% (v/v) Tween-20 in TBS (50 mM Tris, 150 mM NaCl, pH 8.0)]. Primary antibody probing was performed with anti-p21, anti-Bax, anti-CDK4, anti-cyclin D1, anti-pRb or anti-cyclin B1. All primary antibodies were obtained from New England Biolabs (Hitchin, UK) and used at a dilution of 1:1,000, unless stated otherwise. Anti-GAPDH was used as a loading control (1:2,000—New England). Following three washing steps in TTBS, horseradish peroxidase-conjugated anti-species IgG was used as the secondary antibody (Amersham Biosciences Ltd., Little Chalfont, UK). Bands were visualised by the ECL-plus detection system (Amersham).

[6] = test system: cyclin B; assay: Immunoblotting analysis (Example 6.2); type: cell-based, human
Protocol: as §3

[7] = test system: KM cells; assay: MTT proliferation assay, 72 hr (Example 6.1); type: cell-based; conditions: Homo sapiens, KM (melanoma), 72 hours treatment, mean ± SD of at least 3 experiments
Protocol: (§4) The human cancer cell lines; MCF7 (breast), HCT116 and SW480 (colon) (Cancer Research UK, London, UK), KM and MJT3 (melanoma) (in house), PANC1 and MIAPaCa (pancreas) (European Collection of Cell Cultures, Salisbury, UK) were grown in either DMEM (Sigma) or RPMI (Sigma) media supplemented with 10% foetal bovine serum, 2 mM L-glutamine, 1% penicillin/streptomycin.
as §2, with “ATM and ART” for “each agent”, “μL” for “μl”, “number/proliferation” for “number”, “modifications.” for “modifications as described previously (Gordi et al., 2004, Toxicol. Lett. 147: 99-107).”

[8] = test system: MiaPaCa3 cells; assay: MTT proliferation assay, 72 hr (Example 6.1); type: cell-based; conditions: Homo sapiens, MiaPaCa3 (pancreas), 72 hours treatment, mean ± SD of at least 3 experiments
Protocol: as §4
as §2, with “ATM and ART” for “each agent”, “μL” for “μl”, “number/proliferation” for “number”, “modifications.” for “modifications as described previously (Gordi et al., 2004, Toxicol. Lett. 147: 99-107).”

[9] = test system: PANC1 cells; assay: MTT proliferation assay, 72 hr (Example 6.1); type: cell-based, human
Protocol: as §4
as §2, with “ATM and ART” for “each agent”, “Drugs (0.1-100 μM) were then added to the wells, ensuring an equal volume of 200 μl across the plate.” left out, “number/proliferation” for “number”, “modifications.” for “modifications as described previously (Gordi et al., 2004, Toxicol. Lett. 147: 99-107).”, “μL” for “μl”

[10] = test system: HCT116 cells; assay: MTT proliferation assay, 72 hr (Example 6.1); type: cell-based, human
Protocol: as §4
as §2, with “ATM and ART” for “each agent”, “μL” for “μl”, “number/proliferation” for “number”, “modifications.” for “modifications as described previously (Gordi et al., 2004, Toxicol. Lett. 147: 99-107).”

[11] = test system: MCF7 cells; assay: MTT proliferation assay, 72 hr (Example 6.1); type: cell-based, human; conditions: for IC50: MCF7 (breast), 72 hours treatment, MTT, mean ± SD of at least 3 experiments
Protocol: as §4
as §2, with “ATM and ART” for “each agent”, “μL” for “μl”, “number/proliferation” for “number”, “modifications.” for “modifications as described previously (Gordi et al., 2004, Toxicol. Lett. 147: 99-107).”

[12] = test system: MJT3 cells; assay: MTT proliferation assay, 72 hr (Example 6.1); type: cell-based, human
Protocol: as §4
as §2, with “ATM and ART” for “each agent”, “μL” for “μl”, “number/proliferation” for “number”, “modifications.” for “modifications as described previously (Gordi et al., 2004, Toxicol. Lett. 147: 99-107).”

[13] = test system: SW480 cells; assay: MTT proliferation assay, 72 hr (Example 6.1); type: cell-based, human
Protocol: as §4
as §2, with “ATM and ART” for “each agent”, “μL” for “μl”, “number/proliferation” for “number”, “modifications.” for “modifications as described previously (Gordi et al., 2004, Toxicol. Lett. 147: 99-107).”

[14] = test system: HCT116 cells; assay: Flow cytometric analysis of the cell cycle (Example 6.1); type: cell-based, human
Protocol: (§5) Cells were cultured with equi-active concentrations (˜IC25) of ART or ATM for 72 hrs, before fixing in 70% (v/v) ethanol in PBS. Following an incubation period of at least 30 mins, cells were washed and re-suspended in a DNA staining solution (1 mg/mL propidium iodide and 1 ng/mL RNAse A (both Sigma). Acquisition of data was performed within 1 h using a Becton Dickinson FACSCalibur (BD Biosciences), and gating was employed to remove doublet artefacts and to discriminate cells from debris. Ten thousand cells were analysed, and the percentages of cells in G1, S and G2/M phases were determined using the cell cycle analysis program WinMDI CellQuest v2.9 (http://facs.scripps.edu/software.html).

[15] = test system: MCF7 cells; assay: as above; type: cell-based, human
Protocol: as §5

[16] = test system: SW480 cells; assay: as above; type: cell-based, human; conditions: SW480, equi-active (~IC25) concentration, 72 hrs
Protocol: as §5

[17] = test system: Bax; assay: Immunoblotting analysis (Example 6.1); type: cell-based, human; conditions: immunoblotting of treated cultures
Protocol: (§6) Cells were harvested and total cellular protein was solubilised in lysis buffer (New England Biolabs, Hitchin, UK) and resolved by Tris-glycine electrophoresis using a 4-12% bis-tris gradient-gel according to the method of Laemmli (Laemmli UK. 1970. Nature, 227(5259):680-5). Following transfer of proteins to nitrocellulose membranes (0.45 μm), blocking was performed in 5% (w/v) non-fat milk in TTBS [0.5% (v/v) Tween-20 in TBS (50 mM Tris, 150 mM NaCl, pH 8.0)]. Primary antibody probing was performed with anti-p53, anti-p21, anti-Bax, anti-CDK4, anti-cyclin D1 or anti-pRb. All primary antibodies were obtained from New England Biolabs (Hitchin, UK) and used at a dilution of 1:1,000, unless stated otherwise. Anti-GAPDH was used as a loading control (1:2,000—New England). Following five washing steps in TTBS, horseradish peroxidase-conjugated anti-species IgG1 was used as the secondary antibody (Amersham Biosciences Ltd., Little Chalfont, UK). Bands were visualised by the ECL-plus detection system (Amersham).

[18] = test system: cyclin D1 and CDK 4; assay: Immunoblotting analysis (Example 6.1); type: cell-based, human; conditions: whole cell lysates, equi-active (~IC25) concentrations, 72 hrs
Protocol: as §6

[19] = test system: p21^waf1cip1; assay: Immunoblotting analysis (Example 6.1); type: cell-based, human; conditions: whole cell lysates, ~IC25, 72 hrs
Protocol: as §6

[20] = test system: pRb; assay: Immunoblotting analysis (Example 6.1); type: cell-based, human; conditions: in each cell line (HCT116, SW480, MCF7)
Protocol: as §6

[21] = test system: HCT116, SW480 and MCF7 cells; assay: Combination with OXP at fixed ratio, nature of interaction (Example 6.1); type: cell-based, human; conditions: combined with OXP, median effect analysis
From the text: This combination studies followed an approach previously described (Liu et al. 2008, Leuk Lymphoma, 49(9):1800-9).

[22] = test system: human cancer cell lines; assay: Trypan blue dye exclusion in parallel to MTT (Example 6.1); type: cell-based; conditions: in parallel to the MTT assay; data not shown
[23] = test system: Plasmodium falciparum; conditions: Haynes 2006; Vivas 2007; Ramharter 2006; cited from earlier work
[24] = Nagelschmitz et al., 2008; cited from earlier work

IC50 [1]: 14 ± 1.6 µM
IC50 [2]: 1.9 ± 0.75 µM
IC50 [3]: 15 µM
SMILES: Nc1ccn([C@@H]2O[C@H](CO)[C@@H](O)C2(F)F)c(=O)n1 [Gemcitabine, gemcitabine]

IC50 [1]: 9.8 ± 1.7 µM
IC50 [4]: 1.92 ± 0.35 µM
IC50 [2]: 2.3 ± 0.94 µM
SMILES: C[C@H]1[C@H](OC(=O)CCC(=O)O)O[C@@H]2O[C@@]3(C)CC[C@H]4[C@H](C)CC[C@@H]1[C@@]24OO3 [Artesunate, artesunate]
BAX level ([5]; HCT116^norm cells): no effect
BAX level ([5]; HCT116^poly cells): decrease
cyclin B level ([6]; HCT116^norm cells): decrease
cyclin B level ([6]; HCT116^poly cells): increase

IC50 [8]: 14 ± 10 µM
IC50 ([9]; Homo sapiens, PANC-1, PANC1 (pancreas), 72 hours treatment, MTT, mean ± SD of at least 3 experiments): > 1000 µM
IC50 ([10]; Homo sapiens, HCT-116, HCT116 (colon), 72 hours treatment, MTT, mean ± SD of at least 3 experiments): 9.5 ± 0.9 µM
IC50 ([11]; Homo sapiens, MCF7, 72 h): 0.5 µM
IC50 less for ATM than its precursor ART ([11]; MCF7): around 80 fold
IC50 [11]: 0.56 ± 0.17 µM
IC50 ([13]; Homo sapiens, SW480 (colon), 72 hours treatment, MTT, mean ± SD of at least 3 experiments): 4.5 ± 1.6 µM
SMILES: C[C@H]1[C@H](N2CCS(=O)(=O)CC2)O[C@@H]2O[C@@]3(C)CC[C@H]4[C@H](C)CC[C@@H]1[C@@]24OO3 [Artemisone, artemisone]
IC50 [7]: 6.4 ± 2.1 µM
impact on cell number ([9]; p53-mutant, resistant PANC1 cell line): neither drug had an impact
susceptibility to ATM relative to ART ([10]; HCT116, comparison of IC50): around 30 ×
IC50 ([12]; Homo sapiens, MJT3 (melanoma), 72 hours treatment, MTT, mean ± SD of at least 3 experiments): 30 ± 26 µM
effect on cell number ([12]; MJT3 cells, MTT 72 hr): significantly reduced cell number
susceptibility to ATM relative to ART ([13]; SW480, comparison of IC50): around 30 ×
apoptotic/sub-G1 phase of the cell cycle ([14]; HCT116, equi-active (~IC25) concentration, 72 hrs): no increase
distribution of cells within the G1, S and G2 phases ([14]; HCT116, ~IC25, 72 hrs): did not alter the distribution
apoptotic/sub-G1 phase of the cell cycle ([15]; MCF7, equi-active (~IC25) concentration, 72 hrs): no increase
cell cycle effect ([15]; MCF7, ~IC25, 72 hrs): G1-selective blockade
cells in G1 ([15]; MCF7, ~IC25, 72 hrs, untreated 63±4.40%, p=0.015): 83±5.5%
apoptotic/sub-G1 phase of the cell cycle [16]: no increase
pro-apoptotic protein Bax [17]: no increase
levels of cyclin D1 and its associated CDK 4 [18]: significantly reduced
levels of the general CDK inhibitor p21^waf1cip1 [19]: generally unchanged
levels of pRb [20]: dramatic reduction
nature of interaction with OXP [21]: additive interaction
cell viability (trypan blue dye exclusion) [22]: did not affect cell viability
activity against Plasmodium falciparum compared with other antimalarial drugs [23]: significantly more active
toxicity [24]: almost negligible toxicity
